SMILES strings stand for the structures. Where only a bound is given, the exact number is not on record here.

Data set [1] can be described thus: (§1) Cytotoxicity against human HFF cells. Type of data set: cell-based. The settings on record: HFF cells.
Data set [2] has as its system Human papillomavirus type 16. The data set can be described thus: Antiviral activity against HPV-16 infected in human W12-20850 cells after 4 days by non-radioactive hybrid capture technique. The format is functional, organism-based, Human papillomavirus 16.
The next data set relates to HFF. The data set is described as §1. The settings on record: hff. Type of data set: cell-based.
A short description of data set [3]: Selectivity index, ratio of cytotoxicity against human keratinocytes to antiviral activity against HPV-16. The format is toxicity. The settings on record: read-out: Selectivity Index.
Data set [4] can be described thus: Bioavailability in rat at 10 mg/kg administered as suspension. The settings on record: in vivo. Type of data set: ADME, organism-based.
A short description of data set [5]: Volume of distribution in rat at 10 mg/kg administered as suspension. The settings on record: in vivo. Type of data set: ADME, organism-based. Set-up: dose 10 mg/kg.
Data set [6] can be described thus: Half life in rat at 10 mg/kg administered as suspension. The format is ADME, organism-based. Set-up: dose 10 mg/kg. The settings on record: in vivo.
The nature of data set [7]: Clearance in rat at 10 mg/kg administered as suspension. The format is ADME, organism-based. Set-up: dose 10 mg/kg. The settings on record: in vivo.
Data set [8] can be described thus: Selectivity index, ratio of cytotoxicity against african green monkey Vero cells to antiviral activity against HPV-16. Type of data set: toxicity, cell-based. The settings on record: read-out: Selectivity Index.
[9] abbreviates: Human papillomavirus 16, W12-20850, 96 h.

Regarding `Cc1ccc2[nH]c3c(c2c1)CCC[C@@H]3N[C@H](C)c1ccccc1`, the 50% cytotoxic concentration (CC50) in [1] was found to be 41 µM. Also, in data set [2] (setting [9]), the IC50 is 7100 nM.

The molecule `C[C@H](N[C@H]1CCCc2c1[nH]c1ccc(Br)cc21)c1ccccc1` had a CC50 in the data set with HFF of 28.5 µM. The IC50 in [2] (w12-20850) is 2850 nM.

Consider `Cc1ccc2[nH]c3c(c2c1)CCC[C@H]3N[C@@H](C)c1ccccc1`, for which the CC50 in data set [1] was 29 µM. Moreover, the IC50 in data set [2] (setting [9]) came out at 200 nM.

On to `Cc1ccc2[nH]c3c(c2c1)CCC[C@@H]3N[C@@H](C)c1ccccc1`, for which the CC50 in data set [1] was 36 µM. The IC50 in data set [2] (setting [9]) worked out at 6700 nM.

`C[C@@H](N[C@H]1CCCc2c1[nH]c1ccc(Br)cc21)c1ccccc1` yielded a CC50 in data set [1] above 30 µM. Further, in [2] (setting [9]), the 50% inhibitory concentration (IC50) was above 500 nM.

Turning to `C[C@@H](N[C@@H]1CCCc2c1[nH]c1ccc(Br)cc21)c1ccccc1`, the selectivity ratio in data set [3] is above 300; in data set [8] it was above 500. Besides, the bioavailability in [4] was 47%. Further, the Vd in data set [5] amounted to 1.9 L/kg. The same molecule had a half-life in data set [6] of 264 min. The same molecule registered a clearance in data set [7] of 13.4 mL/min/kg. Also, the cytotoxic concentration (CC50) in [1] came to 9 µM. In addition, the IC50 in [2] (setting [9]) was 30 nM.

In turn, `C[C@H](N[C@@H]1CCCc2c1[nH]c1ccc(Br)cc21)c1ccccc1` displayed a CC50 in data set [1] of 15 µM. For the same molecule, the IC50 in [2] (setting [9]) was found to be 20 nM.

On to `Cc1ccc2[nH]c3c(c2c1)CCC[C@H]3N[C@H](C)c1ccccc1`, for which, in data set [1], the half-maximal cytotoxic concentration (CC50) came out at 29 µM. In addition, the IC50 in data set [2] (setting [9]) was 300 nM.

Molecule `CCNC1CCCc2c1[nH]c1ccc(C)cc21` (racemic) showed a CC50 in [1] above 20 µM. In addition, the half-maximal inhibitory concentration (IC50) in data set [2] (setting [9]) is above 20000 nM.

`Brc1ccc2[nH]c3c(c2c1)CCCC3NCCc1ccccc1` (racemic) gave a CC50 in data set [1] of 11.4 µM. Moreover, the half-maximal inhibitory concentration (IC50) in [2] (setting [9]) was found to be 410 nM.

In turn, `Cc1ccc2[nH]c3c(c2c1)CCCC3NCCc1ccccc1` (racemic) showed a CC50 in data set [1] of 13.5 µM. The IC50 in data set [2] (setting [9]) was determined as 2700 nM.

As to `Fc1ccc2[nH]c3c(c2c1)CCCC3NCc1ccccc1` (racemic), half-maximal cytotoxicity in data set [1] (CC50) was put at 35.9 µM. In addition, the IC50 in data set [2] (setting [9]) was determined as 1600 nM.

For `Cc1ccc2[nH]c3c(c2c1)CCCC3NC(C)c1ccccc1` (racemic), the midpoint of cytotoxicity in data set [1], the CC50, lay at 40 µM. Moreover, in [2] (setting [9]), the half-maximal inhibitory concentration (IC50) amounted to 540 nM.

Turning to `OCCNC1CCCc2c1[nH]c1ccc(Br)cc21` (racemic), the half-maximal cytotoxic concentration (CC50) in data set [1] turned out to be 20.1 µM. The 50% inhibitory concentration (IC50) in [2] (setting [9]) was determined as 6830 nM.

In the case of `Brc1cccc2c3c([nH]c12)C(NCc1ccccc1)CCC3` (racemic), the cytotoxic concentration (CC50) in [1] was above 40 µM. For the same molecule, the IC50 in data set [2] (setting [9]) came to 11400 nM.

With `Brc1ccc2c3c([nH]c2c1)C(NCc1ccccc1)CCC3` (racemic), the cytotoxic concentration (CC50) in [1] was above 40 µM. Besides, the IC50 in data set [2] (setting [9]) was found to be 11100 nM.

As for `Brc1ccc2[nH]c3c(c2c1)CCCC3NC1Cc2ccccc2C1` (racemic), the CC50 in [1] was 30.8 µM. In data set [2] (setting [9]), the IC50 worked out at 120 nM.

Consider `C[C@H](N[C@H]1CCCc2c1[nH]c1ccc(Br)cc21)c1ccccc1` (racemic), for which, in [1], the half-maximal cytotoxic concentration (CC50) was 22.9 µM. For the same molecule, in data set [2] (w12-20850), the IC50 is 30 nM.

In the case of `CC(C)(NC1CCCc2c1[nH]c1ccc(Br)cc21)c1ccccc1` (racemic), the cytotoxic concentration (CC50) in [1] is above 40 µM. For the same molecule, the IC50 in data set [2] (setting [9]) was 600 nM.

Molecule `Clc1ccc2[nH]c3c(c2c1)CCCC3NCc1ccccc1` (racemic) displayed a CC50 in [1] of 27.9 µM. Further, the IC50 in data set [2] (setting [9]) is 330 nM.

In [1], `Cc1ccc2[nH]c3c(c2c1)CCCC3NCCO` (racemic) had a CC50 above 30 µM. For the same molecule, the concentration for half-maximal inhibition (IC50) in data set [2] (setting [9]) was above 30000 nM.

In turn, `CCN(CC)CCNC1CCCc2c1[nH]c1ccc(C)cc21` (racemic) displayed a cytotoxic concentration (CC50) in data set [1] above 30 µM. The IC50 in [2] (setting [9]) was above 30000 nM.

In turn, `c1ccc(CNC2CCCc3c2[nH]c2ccccc32)cc1` (racemic) gave a half-maximal cytotoxic concentration (CC50) in [1] of 40.4 µM. Also, the IC50 in data set [2] (setting [9]) is 6700 nM.

In the case of `COC(=O)c1ccc2[nH]c3c(c2c1)CCCC3NCc1ccccc1` (racemic), in [1], half-maximal cytotoxicity (CC50) was put at 44.5 µM. Moreover, the 50% inhibitory concentration (IC50) in data set [2] (setting [9]) came to 19700 nM.

`Cc1ccc2[nH]c3c(c2c1)CCCC3NC1Cc2ccccc2C1` (racemic) displayed a CC50 in [1] of 40 µM. The IC50 in [2] (setting [9]) turned out to be 470 nM.

With `FC(F)(F)c1ccc2[nH]c3c(c2c1)CCCC3NCc1ccccc1` (racemic), the cytotoxic concentration (CC50) in data set [1] is above 100 µM. In [2] (setting [9]), the IC50 came to 1000 nM.

As to `Cc1ccc2[nH]c3c(c2c1)CCCC3NCc1ccccc1` (racemic), in data set [1], the CC50 stood at 21.3 µM. Further, the 50% inhibitory concentration (IC50) in data set [2] (setting [9]) was found to be 1900 nM.

For the molecule `Brc1ccc2[nH]c3c(c2c1)CCCC3NCc1ccccc1` (racemic), in data set [1], half-maximal cytotoxicity (CC50) was put at 18.8 µM. Moreover, in [2] (setting [9]), the half-maximal inhibitory concentration (IC50) amounted to 150 nM.

In data set [1], `O=[N+]([O-])c1ccc2[nH]c3c(c2c1)CCCC3NCc1ccccc1` (racemic) registered a CC50 of 20.4 µM. Moreover, in data set [2] (setting [9]), the 50% inhibitory concentration (IC50) worked out at 230 nM.

In data set [1], `COc1ccc2[nH]c3c(c2c1)CCCC3NCc1ccccc1` (racemic) registered a CC50 of 57.9 µM. The IC50 in data set [2] (setting [9]) stood at 7600 nM.

These data come from ChEMBL document CHEMBL1136961, “Substituted tetrahydrocarbazoles with potent activity against human papillomaviruses” (Bioorg Med Chem Lett, 2009).
